Patent US20060105941A1, “Mixed antibiotic codrugs” (ALLERGAN, INC., priority 2004, published 2006)

Tests used:
corneal ulcer = assay: Eye drop given to a patient with corneal ulcer; format: in vivo; details: patient suffering from corneal ulcer, over a period of two weeks
Experimental: An eye drop containing compound 1 is administered to a patient suffering from corneal ulcer over a period of two weeks.

bacterial conjunctivitis = assay: Eye drop given to a patient with bacterial conjunctivitis; format: in vivo; details: patient suffering from bacterial conjunctivitis, over a period of two weeks
Experimental: An eye drop containing compound 1 is administered to a patient suffering from bacterial conjunctivitis over a period of two weeks.

COc1c(N2CCN[C@H](C)C2)c(F)cc2c(=O)c(C(=O)OC(C)C(=O)Oc3cccc4c3C(=O)C3=C(O)C5(O)C(=O)C(C(N)=O)=C(O)C(N(C)C)C5CC3C4(C)O)cn(C3CC3)c12 (stereo partly shown) [Compound 1]
bacterial infection after the complete treatment (corneal ulcer): eliminated | symptoms after the complete treatment (corneal ulcer): relief of symptoms is experienced | bacterial infection after the complete treatment (bacterial conjunctivitis): eliminated | symptoms after the complete treatment (bacterial conjunctivitis): relief of symptoms is experienced
